US20260217765A1, “NOVEL ANTIMICROBIAL PEPTIDE DESIGNED FROM DUCK-DERIVED ANTIMICROBIAL PEPTIDE ANDUSE THEREOF” (INDUSTRY-ACADEMIC COOPERATION FOUNDATION, CHOSUN UNIVERSITY, priority 2023, published 2026)
Values after ≈ are worked out from the molar mass of the structure shown. Peptide text beside a SMILES is read from it.

Assays:
[1] = system: Acinetobacter baumannii_isolate 10; format: cell-based, Acinetobacter baumannii; details: isolate 10, 24 h
Protocol: (§1) Specifically, among the bacterial strains listed in Table 2, those known to form biofilms well (Acinetobacter baumannii KCTC 2508, Acinetobacter baumannii isolate 10, and isolate 14) were cultured in the appropriate media to the mid-log phase and diluted to a cell concentration of 5×10^4 cells/100 µL, followed by inoculation into microplates (SPL). Subsequently, the peptides prepared in <Example 1> were serially 10-fold diluted with 10 mM sodium phosphate buffer (pH 7.2), and 10 μL of each dilution was added to each well. The plates were then incubated at 37° C. for 24 hours. After completely removing the supernatant, the plates were fixed with 100% methanol for 15 minutes, stained with crystal violet staining solution for 1 hour, washed three times, and then the stain was solubilized with 95% ethanol. Absorbance was measured at 595 nm using a microplate reader to determine the MBIC values for each bacterial strain.

[2] = system: Acinetobacter baumannii_isolate 14; format: cell-based, Acinetobacter baumannii; details: isolate 14, 24 h
Protocol: as §1

[3] = system: Acinetobacter baumannii_isolate 8 (antibiotic-resistant); format: cell-based, Acinetobacter baumannii; details: isolate 8 (antibiotic-resistant)
Text: (§2) To compare the antimicrobial activity of the peptides prepared in <Example 1>, the minimum inhibitory concentration (MIC), […] measured. Here, the minimal inhibitory concentration (MIC) refers to the lowest concentration of a substance that prevents visible bacterial growth.
(§3) Specifically, the bacterial strains listed in Table 2 below were obtained and cultured in media suitable for each strain until the mid-log phase. The cultures were then diluted to a concentration of 2×10^4 cells/100 μL and prepared in microtiter plates (Nunc, USA). Subsequently, serial 2-fold dilutions of the peptides prepared in Example 1 were prepared, and 10 μL of each dilution was added to the wells, and the plates were incubated at 37° C. for 18 hours. Absorbance at 600 nm was measured using a microtiter plate reader (Merck ELISA reader, Germany) to determine the MIC values for each bacterial strain. The parent peptide dCATH was used as a control.

[4] = system: Acinetobacter baumannii_isolate 22 (antibiotic-resistant); format: cell-based, Acinetobacter baumannii; details: isolate 22 (antibiotic-resistant)
Text: as §2, §3

[5] = system: Acinetobacter baumannii_isolate 6 (antibiotic-resistant); format: cell-based, Acinetobacter baumannii; details: isolate 6 (antibiotic-resistant)
Text: as §2, §3

[6] = system: Acinetobacter baumannii_isolate 17 (antibiotic-resistant); format: cell-based, Acinetobacter baumannii; details: isolate 17 (antibiotic-resistant)
Text: as §2, §3

[7] = system: Acinetobacter baumannii_isolate 3 (antibiotic-resistant); format: cell-based, Acinetobacter baumannii; details: isolate 3 (antibiotic-resistant)
Text: as §2, §3

[8] = system: Acinetobacter baumannii_isolate 13 (antibiotic-resistant); format: cell-based, Acinetobacter baumannii; details: isolate 13 (antibiotic-resistant)
Text: as §2, §3

[9] = system: Acinetobacter baumannii_isolate 19 (antibiotic-resistant); format: cell-based, Acinetobacter baumannii; details: isolate 19 (antibiotic-resistant)
Text: as §2, §3

[10] = system: Acinetobacter baumannii_isolate 5 (antibiotic-resistant); format: cell-based, Acinetobacter baumannii; details: isolate 5 (antibiotic-resistant)
Text: as §2, §3

[11] = system: Acinetobacter baumannii_isolate11 (antibiotic-resistant); format: cell-based, Acinetobacter baumannii; details: isolate11 (antibiotic-resistant)
Text: as §2, §3

[12] = system: Acinetobacter baumannii_isolate15 (antibiotic-resistant); format: cell-based, Acinetobacter baumannii; details: isolate15 (antibiotic-resistant)
Text: as §2, §3

[13] = system: Acinetobacter baumannii_isolate 23 (antibiotic-resistant); format: cell-based, Acinetobacter baumannii; details: isolate 23 (antibiotic-resistant)
Text: as §2, §3

[14] = system: Acinetobacter baumannii_isolate 4 (antibiotic-resistant); format: cell-based, Acinetobacter baumannii; details: isolate 4 (antibiotic-resistant)
Text: as §2, §3

[15] = system: Acinetobacter baumannii_isolate 12 (antibiotic-resistant); format: cell-based, Acinetobacter baumannii; details: isolate 12 (antibiotic-resistant)
Text: as §2, §3

[16] = system: Acinetobacter baumannii_isolate 18 (antibiotic-resistant); format: cell-based, Acinetobacter baumannii; details: isolate 18 (antibiotic-resistant)
Text: as §2, §3

[17] = system: Acinetobacter baumannii_isolate20 (antibiotic-resistant); format: cell-based, Acinetobacter baumannii; details: isolate20 (antibiotic-resistant)
Text: as §2, §3

[18] = system: Acinetobacter baumannii_isolate 2 (antibiotic-resistant); format: cell-based, Acinetobacter baumannii; details: isolate 2 (antibiotic-resistant)
Text: as §2, §3

[19] = system: Acinetobacter baumannii_isolate 9 (antibiotic-resistant); format: cell-based, Acinetobacter baumannii; details: isolate 9 (antibiotic-resistant)
Text: as §2, §3

[20] = in vitro; format: cell-based; details: human, HaCaT keratinocyte cells, Cell Viability
Protocol: To evaluate the cytotoxicity of the peptides prepared in <Example 1>, toxicity was measured using a human keratinocyte cell line (HaCaT cell line, Dr. N. E. Fusenig, Heidelberg, Germany).
Specifically, HaCaT cells cultured in DMEM medium containing 10% fetal bovine serum (FBS) were seeded at a density of 2×10^5 cells/well into a microtiter plate and incubated for 24 hours. Then, peptides dCATH, dCATH-A1, dCATH-A2, dCATH-A3, dCATH-A4, dCATH-A5, dCATH-A6, and dCATH-A7 were added to each well at concentrations of 3.13, 6.25, 12.5, 25.0, 50.0, and 100.0 μM/well, followed by incubation for 24 hours in a 5% CO2 incubator. After 24 hours, 100 μL of a reaction solution containing 0.5 mg/mL MTT (Thiazolyl Blue Tetrazolium Bromide) dissolved in phosphate-buffered saline (PBS) was added to each well and reacted for 4 hours. After removing the supernatant, 200 μL of DMSO (dimethyl sulfoxide) was added to dissolve the formed MTT crystals, and absorbance at 570 nm was measured to determine cell viability.

[21] = system: Acinetobacter baumannii KCTC 2508; format: cell-based; details: KCTC 2508, 24 h
Protocol: as §1

Row | Compound | MBIC [1] [µM] | MBIC [2] [µM] | MIC [3] [µM] | MIC [4] [µM] | MIC [5] [µM] | MIC [6] [µM] | MIC [7] [µM] | MIC [8] [µM] | MIC [9] [µM] | MIC [10] [µM] | MIC [11] [µM] | MIC [12] [µM] | MIC [13] [µM] | MIC [14] [µM] | MIC [15] [µM] | MIC [16] [µM] | MIC [17] [µM] | MIC [18] [µM] | MIC [19] [µM] | viability at 24 h, 3.13 µM [20] [%] | also measured
1 | CC[C@H](C)[C@H](NC(=O)[C@H](C)NC(=O)[C@H](CC(C)C)NC(=O)[C@H](CCCCN)NC(=O)[C@@H](NC(=O)[C@H](CC(C)C)NC(=O)[C@H](CCC(N)=O)NC(=O)[C@H](C)NC(=O)[C@H](C)NC(=O)[C@H](CCCNC(=N)N)NC(=O)[C@@H](N)CCCCN)C(C)C)C(=O)N[C@@H](CCCCN)C(=O)N[C@H](C(=O)N[C@@H](Cc1ccc(O)cc1)C(=O)N[C@@H](CCCNC(=N)N)C(=O)N[C@@H](C)C(=O)N[C@@H](Cc1c[nH]c2ccccc12)C(=O)N[C@@H](CCCCN)C(=O)N[C@@H](CCCNC(=N)N)C(=O)N[C@@H](CCCNC(=N)N)C(N)=O)[C@@H](C)CC [dCATH-A4] (H-KRAAQLVKLAIKIYRAWKRR-NH2; N-terminus assumed) | 4 | 4 | 2 (≈ 4.94 µg/mL) | 2 (≈ 4.94 µg/mL) | 1 (≈ 2.47 µg/mL) | 2 (≈ 4.94 µg/mL) | 2 (≈ 4.94 µg/mL) | 2 (≈ 4.94 µg/mL) | 2 (≈ 4.94 µg/mL) | 2 (≈ 4.94 µg/mL) | 2 (≈ 4.94 µg/mL) | 2 (≈ 4.94 µg/mL) | 2 (≈ 4.94 µg/mL) | 2 (≈ 4.94 µg/mL) | 2 (≈ 4.94 µg/mL) | 2 (≈ 4.94 µg/mL) | 2 (≈ 4.94 µg/mL) | 2 (≈ 4.94 µg/mL) | 2 (≈ 4.94 µg/mL) | 90.9 | viability at 24 h, 6.25 µM [20]: 90.2%; viability at 24 h, 12.5 µM [20]: 58%; viability at 24 h, 25 µM [20]: 5.59%; viability at 24 h, 50 µM [20]: 2.49%; viability at 24 h, 100 µM [20]: 1.36%; MBIC [21]: 4 µM
2 | CC[C@H](C)[C@H](NC(=O)[C@H](C)NC(=O)[C@H](CC(C)C)NC(=O)[C@@H]1CCCN1C(=O)[C@@H](NC(=O)[C@H](CC(C)C)NC(=O)[C@H](CCC(N)=O)NC(=O)[C@H](Cc1c[nH]c2ccccc12)NC(=O)[C@H](Cc1ccccc1)NC(=O)[C@H](CCCNC(=N)N)NC(=O)[C@@H](N)CCCCN)C(C)C)C(=O)N[C@@H](CCCCN)C(=O)N[C@H](C(=O)N[C@@H](Cc1ccc(O)cc1)C(=O)N[C@@H](CCCNC(=N)N)C(=O)N[C@@H](C)C(=O)N[C@@H](Cc1c[nH]c2ccccc12)C(=O)N[C@@H](CCCCN)C(=O)N[C@@H](CCCNC(=N)N)C(=O)N[C@@H](CCCNC(=N)N)C(N)=O)[C@@H](C)CC [dCATH, reference compound] (H-KRFWQLVPLAIKIYRAWKRR-NH2; N-terminus assumed) | 4 | 4 | 2 (≈ 5.26 µg/mL) | 2 (≈ 5.26 µg/mL) | 4 (≈ 10.5 µg/mL) | 2 (≈ 5.26 µg/mL) | 2 (≈ 5.26 µg/mL) | 2 (≈ 5.26 µg/mL) | 2 (≈ 5.26 µg/mL) | 2 (≈ 5.26 µg/mL) | 2 (≈ 5.26 µg/mL) | 2 (≈ 5.26 µg/mL) | 2 (≈ 5.26 µg/mL) | 2 (≈ 5.26 µg/mL) | 2 (≈ 5.26 µg/mL) | 2 (≈ 5.26 µg/mL) | 2 (≈ 5.26 µg/mL) | 2 (≈ 5.26 µg/mL) | 2 (≈ 5.26 µg/mL) | 100 | viability at 24 h, 6.25 µM [20]: 100%; viability at 24 h, 12.5 µM [20]: 75.3%; viability at 24 h, 25 µM [20]: 11.6%; viability at 24 h, 50 µM [20]: 2.51%; MBIC [21]: 4 µM
